From paper PMC8286840, “Identifying SARS-CoV-2 antiviral compounds by screening for small molecule inhibitors of Nsp3 papain-like protease” (Biochemical Journal, 2021)
Counter-ions that a name gives are not always drawn. Like-named read-outs stand apart in the source and are kept apart here. *1 amine or outer side, *2 acyl side, *3 side chain or, on linkers, in order; H or OH if unused. Where a SMILES comes first, the peptide text is derived from it. Side-chain parts run from the residue outwards. [ ]: non-standard residue; d: D form. The star is where a group is joined. Ethylenediamine = C(CN[*:2])N[*:1]; Hyp = O=C(O)[C@@H]1C[C@@H](O)CN1; Phg = N[C@H](C(=O)O)c1ccccc1; CO = O=C([*:1])[*:2]; Bn = c1ccc(C*)cc1

Experiments:
[1] = molecular target: T1, SARS-CoV-2 PLpro (nsp3 1564–1878) (Severe acute respiratory syndrome coronavirus 2, UniProt P0DTD1); test: biochemical; design: FRET-quenched peptide (Pro3) cleavage by PLpro, 10 min pre-incubation, slope over 20 min, normalised to no-compound control; conditions: low concentration screen, read-out: % of control remaining
[2] = molecular target: T1, SARS-CoV-2 PLpro (nsp3 1564–1878); test: biochemical; design: FRET-quenched peptide (Pro3) cleavage by PLpro, 10 min pre-incubation, slope over 20 min, normalised to no-compound control; conditions: high concentration screen, read-out: % of control remaining

O=C1C2CCN(CC2)C1(CO)CO [PRIMA-1]
remaining activity at 1.25 µM ([1]; Well no.=6486): 96.7%
remaining activity at 3.75 µM ([2]; Well no.=6486): 97.6%

N#Cc1cc(CN2CCC(Nc3ncnc4sc(Cl)cc34)CC2)ccc1F [PRX-08066]
remaining activity at 1.25 µM ([1]; Well no.=4792): 101%
remaining activity at 3.75 µM ([2]; Well no.=4792): 97.9%

O=P(O)(O)CP(=O)(O)OC[C@H]1O[C@@H](n2cnc3c(NCc4ccccc4)ncnc32)[C@H](O)[C@@H]1O [PSB-12379]
remaining activity at 1.25 µM ([1]; Well no.=8745): 105%
remaining activity at 3.75 µM ([2]; Well no.=8745): 105%

C[C@@]1(F)[C@H](O)[C@@H](CO)O[C@H]1n1ccc(N)nc1=O [PSI-6130]
remaining activity at 1.25 µM ([1]; Well no.=7764): 107%
remaining activity at 3.75 µM ([2]; Well no.=7764): 100%

C[C@@]1(F)[C@H](O)[C@@H](CO)O[C@H]1n1ccc(=O)[nH]c1=O [PSI-6206]
remaining activity at 1.25 µM ([1]; Well no.=7710): 92.6%
remaining activity at 3.75 µM ([2]; Well no.=7710): 87.5%

CCCCC1CCC(c2nc(-c3ccncc3)no2)CC1 (stereo not shown) [PSN-375963]
remaining activity at 1.25 µM ([1]; Well no.=5398): 106%
remaining activity at 3.75 µM ([2]; Well no.=5398): 106%

O=C(Nc1ccc(Cl)cc1)Nc1cccc(-c2cccc(N3CCCC3)n2)c1 [PSNCBAM-1]
remaining activity at 1.25 µM ([1]; Well no.=5820): 105%
remaining activity at 3.75 µM ([2]; Well no.=5820): 97%

Cc1nc2cc(F)c(F)cc2n1-c1cncc(Nc2ccc(C(F)(F)F)cc2)n1 [PTC-028]
remaining activity at 1.25 µM ([1]; Well no.=7024): 106%
remaining activity at 3.75 µM ([2]; Well no.=7024): 96.8%

COc1cc(Br)c(Nc2nc(-c3c(C)nc4ncccn34)cs2)c(Br)c1 [PTC-209]
remaining activity at 1.25 µM ([1]; Well no.=5643): 94.3%
remaining activity at 3.75 µM ([2]; Well no.=5643): 95%

CC(C)NCCCn1c(Sc2cc3c(cc2I)OCO3)nc2c(N)ncnc21 [PU-H71]
remaining activity at 1.25 µM ([1]; Well no.=8772): 98.2%
remaining activity at 3.75 µM ([2]; Well no.=8772): 95.7%

COc1ccc(C(C)=O)c(O)c1 [Paeonol]
remaining activity at 1.25 µM ([1]; Well no.=4045): 100%
remaining activity at 1.25 µM ([1]; Well no.=8194): 105%
remaining activity at 3.75 µM ([2]; Well no.=4045): 101%
remaining activity at 3.75 µM ([2]; Well no.=8194): 102%

CC(=O)c1c(C)c2cnc(Nc3ccc(N4CCNCC4)cn3)nc2n(C2CCCC2)c1=O [Palbociclib (hydrochloride)]
remaining activity at 1.25 µM ([1]; Well no.=7350): 96.3%
remaining activity at 3.75 µM ([2]; Well no.=7350): 97.5%

CC(=O)c1c(C)c2cnc(Nc3ccc(N4CCNCC4)cn3)nc2n(C2CCCC2)c1=O [Palbociclib (isethionate)]
remaining activity at 1.25 µM ([1]; Well no.=7316): 103%
remaining activity at 3.75 µM ([2]; Well no.=7316): 103%

Cc1nc2n(c(=O)c1CCN1CCC(c3noc4cc(F)ccc34)CC1)CCCC2O (stereo not shown) [Paliperidone]
remaining activity at 1.25 µM ([1]; Well no.=8197): 109%
remaining activity at 3.75 µM ([2]; Well no.=8197): 99.6%

COc1cc2c(cc1OC)-c1cc3ccc(OC)c(OC)c3c[n+]1CC2 [Palmatine chloride]
remaining activity at 1.25 µM ([1]; Well no.=3641): 101%
remaining activity at 3.75 µM ([2]; Well no.=3641): 99.2%

CCCCCCCCCCCCCCCC(=O)O [Palmitic acid]
remaining activity at 1.25 µM ([1]; Well no.=7077): 98.9%
remaining activity at 3.75 µM ([2]; Well no.=7077): 94.2%

CCCCCCCCCCCCCCCC(=O)NCCc1ccc(O)c(O)c1 [Palmitoyl dopamine]
remaining activity at 1.25 µM ([1]; Well no.=4261): 101%
remaining activity at 3.75 µM ([2]; Well no.=4261): 98.2%

COc1ccc(COc2cc3oc(=O)c4cc(C(C)O)ccc4c3cc2OC)cc1 (stereo not shown) [Palomid 529]
remaining activity at 1.25 µM ([1]; Well no.=4860): 102%
remaining activity at 3.75 µM ([2]; Well no.=4860): 98.2%

O=C1c2cccc3c2[C@H](CCC3)CN1[C@@H]1CN2CCC1CC2 [Palonosetron (Hydrochloride)]
remaining activity at 1.25 µM ([1]; Well no.=6614): 98.5%
remaining activity at 3.75 µM ([2]; Well no.=6614): 98%

O=C1c2cccc3c2[C@H](CCC3)CN1[C@@H]1CN2CCC1CC2 [Palonosetron HCl]
remaining activity at 1.25 µM ([1]; Well no.=4923): 99.3%
remaining activity at 3.75 µM ([2]; Well no.=4923): 98.2%

Cc1cc(NC(=O)NCCN2CCC(O)(Cc3ccccc3)CC2)c2ccccc2n1 [Palosuran]
remaining activity at 1.25 µM ([1]; Well no.=7915): 105%
remaining activity at 3.75 µM ([2]; Well no.=7915): 92.5%

NCCC(O)(P(=O)(O)O)P(=O)(O)O [Pamidronate Disodium]
remaining activity at 1.25 µM ([1]; Well no.=4773): 96.6%
remaining activity at 3.75 µM ([2]; Well no.=4773): 97.3%

CC1(C)CCC[C@](C)([C@H]2CC[C@]3(C)[C@@H]2[C@H](O)C[C@@H]2[C@@]4(C)CC[C@H](O)C(C)(C)[C@@H]4CC[C@]23C)O1 [Panaxadiol]
remaining activity at 1.25 µM ([1]; Well no.=3739): 100%
remaining activity at 3.75 µM ([2]; Well no.=3739): 99.1%

CC1(C)CCC[C@](C)([C@H]2CC[C@]3(C)[C@@H]2[C@H](O)C[C@@H]2[C@@]4(C)CC[C@H](O)C(C)(C)[C@@H]4[C@@H](O)C[C@]23C)O1 [Panaxatriol]
remaining activity at 1.25 µM ([1]; Well no.=3699): 94.8%
remaining activity at 3.75 µM ([2]; Well no.=3699): 101%

CC(=O)O[C@H]1C[C@@H]2CC[C@@H]3[C@H](CC[C@@]4(C)[C@H]3C[C@H]([N+]3(C)CCCCC3)[C@@H]4OC(C)=O)[C@@]2(C)C[C@@H]1[N+]1(C)CCCCC1 [Pancuronium bromide]
remaining activity at 1.25 µM ([1]; Well no.=808): 98.5%
remaining activity at 3.75 µM ([2]; Well no.=808): 97.8%

Cc1[nH]c2ccccc2c1CCNCc1ccc(/C=C/C(=O)NO)cc1 [Panobinostat (LBH589)]
remaining activity at 1.25 µM ([1]; Well no.=4832): 94.6%
remaining activity at 3.75 µM ([2]; Well no.=4832): 96.4%

COc1ccnc(C[S+]([O-])c2nc3cc(OC(F)F)ccc3[nH]2)c1OC (stereo not shown) [Pantoprazole]
remaining activity at 1.25 µM ([1]; Well no.=2091): 101%
remaining activity at 3.75 µM ([2]; Well no.=2091): 99.9%

CC(C)(CO)[C@@H](O)C(=O)NCCC(=O)O [Pantothenic acid]
remaining activity at 1.25 µM ([1]; Well no.=2288): 90.1%
remaining activity at 3.75 µM ([2]; Well no.=2288): 92.3%

COc1ccc(Cc2nccc3cc(OC)c(OC)cc23)cc1OC [Papaverine hydrochloride]
remaining activity at 1.25 µM ([1]; Well no.=1144): 98.1%
remaining activity at 3.75 µM ([2]; Well no.=1144): 98.9%

CCc1cccc2c1c(O)c(C(=O)N(CC)c1ccccc1)c(=O)n2C [Paquinimod]
remaining activity at 1.25 µM ([1]; Well no.=8373): 92.6%
remaining activity at 3.75 µM ([2]; Well no.=8373): 92.5%

C#CCN(C)Cc1ccccc1 [Pargyline hydrochloride]
remaining activity at 1.25 µM ([1]; Well no.=1445): 99.1%
remaining activity at 3.75 µM ([2]; Well no.=1445): 98.9%

NC[C@@H]1O[C@H](O[C@H]2[C@@H](O)[C@H](O[C@@H]3[C@@H](O)[C@H](N)C[C@H](N)[C@H]3O[C@H]3O[C@H](CO)[C@@H](O)[C@H](O)[C@H]3N)O[C@@H]2CO)[C@H](N)[C@@H](O)[C@@H]1O [Paromomycin sulfate]
remaining activity at 1.25 µM ([1]; Well no.=1211): 99.9%
remaining activity at 3.75 µM ([2]; Well no.=1211): 100%

Fc1ccc([C@@H]2CCNC[C@H]2COc2ccc3c(c2)OCO3)cc1 [Paroxetine]
remaining activity at 1.25 µM ([1]; Well no.=2093): 103%
remaining activity at 3.75 µM ([2]; Well no.=2093): 101%

NCCCC[C@@H]1NC(=O)[C@@H](Cc2c[nH]c3ccccc23)NC(=O)[C@H](c2ccccc2)NC(=O)[C@@H]2C[C@@H](OC(=O)NCCN)CN2C(=O)[C@H](Cc2ccccc2)NC(=O)[C@H](Cc2ccc(OCc3ccccc3)cc2)NC1=O [Pasireotide (ditrifluoroacetate)] (cyclo([Hyp]([CO-Ethylenediamine])[Phg][dW]KY(Bn)F))
remaining activity at 1.25 µM ([1]; Well no.=7988): 96.1%
remaining activity at 3.75 µM ([2]; Well no.=7988): 101%
